Values quoted from earlier work, collected in US7858379B2, “Apparatus and method for determining the concentration of iodine-containing organic compounds in an aqueous solution” (Lynntech, Inc., priority 2007, dated 2010).

Key:
[1] = through the process of glomerular filtration

protein binding	excretion [1]	SMILES
do not bind to protein	totally excreted by the kidney	CNC(=O)c1c(I)c(NC(C)=O)c(I)c(C(=O)O)c1I [Iothalamate]
do not bind to protein	totally excreted by the kidney	CC(=O)N(CC(O)CO)c1c(I)c(C(=O)NCC(O)CO)c(I)c(C(=O)NCC(O)CO)c1I (stereo not shown) [Iohexol]
